The values below come from patent US9127024B2 (Intrexon Corporation, priority 2013, dated 2015).

Some results are limits rather than exact numbers.

For the first assay, the target named is RheoSwitch® (CHO-K1_RS-1 cells, firefly Luciferase reporter) (Choristoneura fumiferana, UniProt O77240). The experiment in a line: in vitro gene switch assay (fLUC Luciferase expression, potency screen). The class given is cell-based. The following applies: read-out: fLUC assay EC50, 24 hours with compound, 25 μM to 2.5 pM, figure in parentheses after a value not defined. The source says: Gene switch assays are disclosed, e.g., in U.S. Pat. Nos. 8,076,517; 7,456,315; 7,304,161; and 6,258,603.
Chain of RheoSwitch® (CHO-K1_RS-1 cells, firefly Luciferase reporter) (O77240 1-513): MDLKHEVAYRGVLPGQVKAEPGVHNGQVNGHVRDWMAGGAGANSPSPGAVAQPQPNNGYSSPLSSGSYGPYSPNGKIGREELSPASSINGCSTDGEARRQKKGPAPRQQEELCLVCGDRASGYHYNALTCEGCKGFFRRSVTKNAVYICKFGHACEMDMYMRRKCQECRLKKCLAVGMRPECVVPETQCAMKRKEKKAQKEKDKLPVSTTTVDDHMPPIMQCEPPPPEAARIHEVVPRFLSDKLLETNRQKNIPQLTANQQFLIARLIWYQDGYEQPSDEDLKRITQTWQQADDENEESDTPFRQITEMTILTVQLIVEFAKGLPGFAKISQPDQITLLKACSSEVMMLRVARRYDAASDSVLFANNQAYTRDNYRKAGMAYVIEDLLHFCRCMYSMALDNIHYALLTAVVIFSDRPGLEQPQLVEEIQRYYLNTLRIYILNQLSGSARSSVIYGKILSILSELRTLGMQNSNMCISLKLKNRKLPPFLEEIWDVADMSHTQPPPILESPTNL
CHO-K1 cells were stably transfected with a plasmid (RS-1, FIG. 1) coding for firefly Luciferase (fLUC) under the control of the RheoSwitch® resulting in the stable cell line CHO-K1_RS-1. A master cell bank was created containing approximately 100 vials at 5×10^6 cells per vial. One vial of CHO-K1_RS-1 was thawed and cultured for two weeks prior to each in vitro potency screening.
Twenty-four (24) hours prior to treatment with the control and test compounds the CHO-K1_RS-1 cells were seeded into white-opaque 384-well cell culture plates at 3,600 cells per well in 30 μl of culture medium. The cells were incubated in a humidified CO2 incubator at 37° C. until compound treatment.
Compounds were prepared at 25 mM in 100% dry DMSO and stored at room temperature in sealed 1 ml tubes prior to subsequent dilution and assay. On the day of cell treatment the tubes containing the control and test compounds were sorted and the ligands transferred to a 96-well polypropylene plate for subsequent dilution. The compounds were diluted in 100% dry DMSO in an 8-point, 10-fold dilution series ranging from 25 mM to 2.5 nM using the Biomek FX automated liquid handler.
The diluted compounds were then transferred to each well of 384-well polypropylene plate in quadruplicate resulting in a single 384-well plate with four replicates of each compound dilution in a different quadrant of the plate. Each well on the 384-well plate received 20 μl of diluted compound. The 384-well plates containing diluted compound and the plates containing cells in culture were loaded onto the Biomek FX and 30 nl of compound was delivered to each well containing cells using a 384-pin V&P Scientific Pin Tool. The resulting 1000-fold dilution (30 nl to 30 μl) generated a final dosing range of 25 μM to 2.5 pM in 0.1% DMSO. Two replicate plates were produced to supply a dedicated plate for the Luciferase expression assay and the APH cell viability assay.
The cells were incubated with the compound for 24 hours in a humidified CO2 incubator at 37° C. Following incubation, the cells were assayed for Luciferase expression (fLUC assay) using the Steady Glo assay from Promega. Cells were equilibrated to room temperature for 15 minutes prior to reagent addition. Thirty micro liters (30 μl) of assay reagent was added to each well of the 384-well plate using the Biomek FX. The reagent was incubated with the cells for 10-120 minutes prior to reading on a Molecular Devices Spectramax L luminometer. The assay reagents were prepared as per the manufacturer's instructions.
The Luciferase expression data was normalized to the baseline signal from cells treated with DMSO alone. The ratio of signal from treated cells to vehicle-treated cells was plotted and non-linear regress was performed using Graph Pad Prism software. EC50, (log)EC50 and Hill slope data was generated. Reporter gene expression, e.g., luciferase expression, serves as a proxy for the expression of a gene of interest. See, e.g., US 2009/0123441 and WO 2011/119773.
In the case of `CCC(N(NC(=O)c1ccc2c(c1)B(O)OC2)C(=O)c1cc(C)cc(C)c1)C(C)(C)C` (racemic) [Cpd. No. 51], the concentration for a half-maximal effect (EC50) was determined as 432 nM.

Turning to `CCC(CF)N(NC(=O)c1ccc2c(c1C)OCCOB2O)C(=O)c1cc(C)cc(C)c1` (racemic) [Cpd. No. 82], the concentration giving a half-maximal response (EC50) was determined as 2610 nM.

Regarding `Cc1cc(C)cc(C(=O)N(NC(=O)c2ccc3c(c2C)OCCOB3O)C(c2ccccc2)C(C)(C)C)c1` (racemic) [Cpd. No. 83, N′-(2,2-dimethyl-1-phenylpropyl)-N′-(3,5-dimethylbenzoyl)-1-hydroxy-6-methyl-3,4-dihydro-1H-benzo[c][1,5,2]dioxaborepine-7-carbohydrazide], the EC50 was 65.9 nM. On to `CCC(c1ccccc1)N(NC(=O)c1ccc(B(O)O)cc1F)C(=O)c1cc(C)cc(C)c1` (racemic) [compound 18], for which the EC50 was found to be 203 nM.

For `CCC(c1ccccc1)N(NC(=O)c1ccc(B(O)O)cc1F)C(=O)c1cc(C)cc(C)c1` (racemic) [compound 19], the 50% effective concentration (EC50) worked out at 258 nM. For the molecule `CCC(N(NC(=O)c1cccc(OC)c1C)C(=O)c1cccc(B(O)O)c1)C(C)(C)C` (racemic) [compound 32], the half-maximal effective concentration (EC50) stood at 2880 nM.

As to `CCC(N(NC(=O)c1cccc(OC)c1C)C(=O)c1cc(F)cc(B(O)O)c1)C(C)(C)C` (racemic) [compound 35], the EC50 amounted to 2600 nM.

Consider `CCC(N(NC(=O)c1cccc(OC)c1C)C(=O)c1cc(B(O)O)cc([N+](=O)[O-])c1)C(C)(C)C` (racemic) [compound 36], for which the EC50 is over 25000 nM.

For the molecule `CCC(N(NC(=O)c1cccc(OC)c1C)C(=O)c1cc(OC)cc(B(O)O)c1)C(C)(C)C` (racemic) [compound 37], the concentration giving a half-maximal response (EC50) worked out at 2110 nM. The same measure, in the same setting: as for `CCCC(N(NC(=O)c1cccc(B2OC(C)(C)C(C)(C)O2)c1C)C(=O)c1cccc(B2OC(C)(C)C(C)(C)O2)c1C)C(C)(C)C` (racemic) [compound 41], the figure is about 14000 nM; as for `CCCC(N(NC(=O)c1cccc(B2OC(C)(C)C(C)(C)O2)c1C)C(=O)c1cc(C)cc(C)c1)C(C)(C)C` (racemic) [compound 44], 250 nM; as for `CCC(N(NC(=O)c1cccc(B2OC(C)(C)C(C)(C)O2)c1C)C(=O)c1cc(OC)c(C)c(OC)c1)C(C)(C)C` (racemic) [compound 47], 1640 nM. With `CCCC(N(NC(=O)c1cccc(B2OC(C)(C)C(C)(C)O2)c1C)C(=O)c1cc(OC)ccc1OC)C(C)(C)C` (racemic) [compound 48], the half-maximal effective concentration (EC50) was 22200 nM. The same measure, in the same setting: the result for `Cc1cc(C)cc(C(=O)N(NC(=O)c2cccc(B(O)O)c2Cl)C(C)(C)C)c1` [Cpd. No. 3] reads 1660 nM; that for `CCC[C@@H](N(NC(=O)c1cccc(B(O)O)c1F)C(=O)c1cc(C)cc(C)c1)C(C)(C)C` [Cpd. No. 6], 92.7 nM. In the case of `Cc1cc(C)cc(C(=O)N(NC(=O)c2ccc(B(O)O)cc2)C(C)(C)C)c1` [Cpd. No. 7], the half-maximal effective concentration (EC50) amounted to 1010 nM.

Take `CCC[C@@H](N(NC(=O)c1ccc(B(O)O)cc1)C(=O)c1cc(C)cc(C)c1)C(C)(C)C` [Cpd. No. 8]: the half-maximal effective concentration (EC50) turned out to be 103 nM.

For `Cc1cc(C)cc(C(=O)N(NC(=O)c2ccc(B(O)O)c(F)c2)C(C)(C)C)c1` [Cpd. No. 23, (4-(2-(tert-butyl)-2-(3,5-dimethylbenzoyl) hydrazinecarbonyl)-2-fluorophenyl)boronic acid], the 50% effective concentration (EC50) came to 1800 nM. In the case of `CCC[C@@H](N(NC(=O)c1c(F)cc(B(O)O)cc1F)C(=O)c1cc(C)cc(C)c1)C(C)(C)C` [Cpd. No. 24, (R)-(4-(2-(3,5-dimethylbenzoyl)-2-(2,2-dimethylhexan-3-yl)hydrazinecarbonyl)-3,5-difluorophenyl)boronic acid], the 50% effective concentration (EC50) worked out at 85.7 nM. Still for that read-out and setting: the result for `Cc1cc(C)cc(C(=O)N(NC(=O)c2c(F)cc(B(O)O)cc2F)C(C)(C)C)c1` [Cpd. No. 25, (4-(2-(tert-butyl)-2-(3,5-dimethylbenzoyl) hydrazinecarbonyl)-3,5-difluorophenyl)boronic acid] reads 796 nM; that for `CC[C@@H](N(NC(=O)c1ccc(B(O)O)c(OCCOC)c1C)C(=O)c1cc(C)cc(C)c1)C(C)(C)C` [Cpd. No. 26, (R)-(4-(2-(3,5-dimethylbenzoyl)-2-(2,2-dimethylpentan-3-yl)hydrazinecarbonyl)-2-(2-methoxyethoxy)-3-methylphenyl)boronic acid], 1670 nM; that for `CCC[C@@H](N(NC(=O)c1ccc(CCCB(O)O)c(OC)c1C)C(=O)c1cc(C)cc(C)c1)C(C)(C)C` [Cpd. No. 27, (R)-(3-(4-(2-(3,5-dimethylbenzoyl)-2-(2,2-dimethylhexan-3-yl)hydrazinecarbonyl)-2-methoxy-3-methyl-phenyl)propyl)boronic acid], 270 nM. On to `CCC[C@@H](N(NC(=O)c1ccc(CCCB(O)O)c(OC(F)F)c1C)C(=O)c1cc(C)cc(C)c1)C(C)(C)C` [Cpd. No. 28], for which the EC50 is 57.7 nM. The same measure, in the same setting: the result for `CC[C@@H](N(NC(=O)c1cccc(OC)c1C)C(=O)c1cc(C)cc(B(O)O)c1)C(C)(C)C` [Cpd. No. 33, (R)-(3-(1-(2,2-dimethylpentan-3-yl)-2-(3-methoxy-2-methylbenzoyl)hydrazinecarbonyl)-5-methylphenyl)boronic acid] reads 191 nM; that for `CCCCB1OCc2ccc(C(=O)NN(C(=O)c3ccccc3)C(C)(C)C)c(F)c21` [Cpd. No. 64, N′-benzoyl-N′-(tert-butyl)-1-butyl-7-fluoro-1,3-dihydrobenzo[c][1,2]oxaborole-6-carbohydrazide], over 25000 nM; that for `Cc1cc(C)cc(C(=O)N(NC(=O)c2ccc3c(c2F)COB3O)C(C)(C)C)c1` [Cpd. No. 65, N′-(tert-butyl)-N′-(3,5-dimethylbenzoyl)-4-fluoro-1-hydroxy-1,3-dihydrobenzo[c][1,2]oxaborole-5-carbohydrazide], 3180 nM. Consider `[2H]C([2H])([2H])c1cc(C(=O)N(NC(=O)c2ccc3c(c2F)COB3O)C(C)(C)C)cc(C([2H])([2H])[2H])c1` [Cpd. No. 66, N′-(3,5-bis(methyl-d3)benzoyl)-N′-(tert-butyl)-4-fluoro-1-hydroxy-1,3-dihydrobenzo[c][1,2]oxaborole-5-carbohydrazide], for which the EC50 was determined as 3270 nM. For the molecule `Cc1cc(C)cc(C(=O)N(NC(=O)c2ccc3c(c2C)OB(O)CCC3)C(C)(C)C)c1` [Cpd. No. 69], the EC50 is 203 nM. Still for that read-out and setting: as for `CCC[C@@H](N(NC(=O)c1ccc2c(c1C)OB(O)CCC2)C(=O)c1cc(C)cc(C)c1)C(C)(C)C` [Cpd. No. 70, (R)—N′-(3,5-dimethylbenzoyl)-N′-(2,2-dimethylhexan-3-yl)-2-hydroxy-9-methyl-2,3,4,5-tetrahydrobenzo[f][1,2]oxaborepine-8-carbohydrazide], the figure is 40.6 nM.

Still in this assay, the particulars now being: read-out: fLUC assay EC50 Run 1, 24 hours with compound, Run 1.
In the case of `CC[C@@H](N(NC(=O)c1ccc(B(O)O)cc1F)C(=O)c1cc(C)cc(C)c1)C(C)(C)C` [Cpd. No. 85, (R)-(4-(2-(3,5-dimethylbenzoyl)-2-(2,2-dimethylpentan-3-yl)hydrazine-1-carbonyl)-3-fluorophenyl)boronic acid], the half-maximal effective concentration (EC50) is 69.4 nM.

Regarding `CC[C@@H](N(NC(=O)c1ccc(COC)c(B(O)O)c1F)C(=O)c1cc(C)cc(C)c1)C(C)(C)C` [Cpd. No. 86, (R)-(3-(2-(3,5-dimethylbenzoyl)-2-(2,2-dimethylpentan-3-yl)hydrazine-1-carbonyl)-2-fluoro-6-(methoxymethyl)phenyl)boronic acid], the EC50 is 48.8 nM. On to `CC[C@@H](N(NC(=O)c1ccc(COC)c(B2OC(C)(C)C(C)(C)O2)c1F)C(=O)c1cc(C)cc(C)c1)C(C)(C)C` [Cpd. No. 87, (R)-N′-(3,5-dimethylbenzoyl)-N′-(2,2 dimethylpentan-3-yl)-2-fluoro-4-(methoxymethyl)-3-(4,4,5,5-tetramethyl-1,3,2-dioxaborolan-2-yl)benzohydrazide], for which the half-maximal effective concentration (EC50) was 47.6 nM.

The same assay, now with this note: read-out: fLUC assay EC50 Run 2, 24 hours with compound, Run 2.
On to `CC[C@@H](N(NC(=O)c1ccc(B(O)O)cc1F)C(=O)c1cc(C)cc(C)c1)C(C)(C)C` [Cpd. No. 85, (R)-(4-(2-(3,5-dimethylbenzoyl)-2-(2,2-dimethylpentan-3-yl)hydrazine-1-carbonyl)-3-fluorophenyl)boronic acid], for which the EC50 was determined as 66.6 nM. For `CC[C@@H](N(NC(=O)c1ccc(COC)c(B(O)O)c1F)C(=O)c1cc(C)cc(C)c1)C(C)(C)C` [Cpd. No. 86, (R)-(3-(2-(3,5-dimethylbenzoyl)-2-(2,2-dimethylpentan-3-yl)hydrazine-1-carbonyl)-2-fluoro-6-(methoxymethyl)phenyl)boronic acid], the concentration giving a half-maximal response (EC50) was determined as 74.5 nM. As for `CC[C@@H](N(NC(=O)c1ccc(COC)c(B2OC(C)(C)C(C)(C)O2)c1F)C(=O)c1cc(C)cc(C)c1)C(C)(C)C` [Cpd. No. 87, (R)-N′-(3,5-dimethylbenzoyl)-N′-(2,2 dimethylpentan-3-yl)-2-fluoro-4-(methoxymethyl)-3-(4,4,5,5-tetramethyl-1,3,2-dioxaborolan-2-yl)benzohydrazide], the concentration for a half-maximal effect (EC50) was determined as 96.4 nM.
